One series addresses T1, h-SERT (Homo sapiens, UniProt P31645).
T1 construct: purchased Perkin-Elmer RBHSTM400UA; host or cells: HEK293 membranes
The series is described as follows: [3H]-paroxetine radioligand binding on h-SERT membranes (HEK293). To be noted: for % radioligand binding at 25 µM / % of Binding [3H]-Paroxetine h-SERT: 25 μM compound, 2 nM [3H]-paroxetine, HEK293 h-SERT membranes; for affinity for h-SERT (displacement of [3H]-paroxetine from the central binding site): result in words. The method, then:
(§1) To evaluate the affinity (Ki) of our compounds, competitive binding assays in α4β2 nAChR using [^3H]-cytisine as radioligand ([^3H]-Cyt) was measured. Binding experiments were carried out on whole rat brain synaptosomes. To evaluate the affinity on the monoamine transporters SERT and DAT, binding affinity (Ki) was determined using [^3H]-WIN 35,428 ([^3H]-WIN) for h-DAT and [^3H]-paroxetine ([^3H]-parox) for h-SERT as specific radioligands for the corresponding monoamine transporters respectively. Competitive binding studies were carried out on homogenized membranes prepared from the human clonal cell line HEK293 for h-SERT (Perkin Elmer) and CHO-K1 for h-DAT (Perkin Elmer). […].
The cellular background HEK293 containing 400 μL of h-SERT (Code RBHSTM400UA, Perkin-Elmer, Santiago, Chile) was diluted in 12 Eppendorf tubes, containing a storage buffer solution of Tris-HCl 50 mM (pH 7.4), EDTA 0.5 mM, MgCl2 10 mM and 10% sucrose, obtaining a final volume between 260 and 340 μL, which was finally stored at −80 °C [46].
Each Eppendorf tube was incubated with 50 mM Tris HCl buffer (pH 7.4), 120 mM NaCl, 5 mM KCl and the drugs under study using increasing concentrations, in presence of 2 nM of [^3H]-paroxetine (specific activity 23.1 Ci/mmol, Code NET86925UC, Perkin-Elmer, Santiago, Chile) with a final volume of 250 μL [46]. Non-specific binding was determined using […] fluoxetine. After 30 min at 27 °C, the incubation was stopped by rapid filtration on a Whatman GF/C filter preabsorbed in 0.5% polyethylenimine (PEI), washed with cold working buffer solution, 3 × 3mL, filtered, and scintillation liquid was added. The radioactivity was measured by liquid scintillation spectrometry (MicroBeta 2450 microplate counter, PerkinElmer, Santiago, Chile). The data were represented in a bar graph using 25 μM concentration for both, the compound under study and fluoxetine as the non-specific ligand. Each bar represents the mean ± S.E.M obtained in the experiments carried out in triplicates.
On the technique in general: Loss of bound radioactivity is the signal in a displacement assay; it reports binding, not function.

For a further series, the target named is T2, h-DAT (Homo sapiens, UniProt Q01959).
T2 construct: purchased Perkin-Elmer RBHDATM400UA; host or cells: CHO-K1 membranes
The series is described as follows: [3H]-WIN 35,428 competitive binding on h-DAT membranes (CHO-K1). As to the method: as §1
The cellular background CHO-K1 with 400 μL of h-DAT (Code RBHDATM400UA, Perkin-Elmer, Santiago, Chile) was diluted in 12 Eppendorf tubes, with a storage buffer solution of Tris-HCl 50 mM (pH 7.4), EDTA 0.5 mM, MgCl2 10 mM and 10% sucrose, obtaining a final volume of 260–340 μL stored at −80 °C [46]. Each Eppendorf tube was incubated in 50 mM Tris-HCl buffer solution (pH 7.4), 100 mM NaCl, the drugs under study were using increasing concentrations, with 1 nM of [^3H]-WIN 35,428 (specific activity 82.6 Ci/mmol, Code NET1033025UC, Perkin-Elmer, Santiago, Chile) with a final volume of 250 μL. Non-specific binding was determined using 10 mM methylphenidate.
After 120 min at 4 °C, the incubation was stopped by rapid filtration on a Whatman GF/C filter preabsorbed in 0.5% polyethylenimine (PEI), washed with cold working buffer solution, 3 x 3mL, filtered, and scintillation liquid was added. The radioactivity was measured by liquid scintillation spectrometry (MicroBeta 2450 microplate counter, PerkinElmer, Santiago, Chile). The data were plotted by non-linear regression variable inhibitor-response dose (Prism 5.01, GraphPad, San Diego, CA, USA) to estimate the IC50 and Ki values for the tested compounds using the Cheng-Prusoff equation.

A further series deals with T3, α4β2 nAChR (Rattus norvegicus, UniProt P09483+P12390).
T3 construct: the rat complete brain P1 fraction (occupying 2 mg of wet tissue for each assay); from tissue; host or cells: whole rat brain, synaptosome pellet (fraction P1)
In words: [3H]-cytisine competitive binding on whole rat brain synaptosomes. The method, then:
as §1
Preparation of the synaptosome fraction: the rats were sacrificed by decapitation, and their brain removed without dissecting. Brain tissue was homogenized in 40 volumes using a buffer of 0.32 M sucrose at pH 7.4, containing 1 mM EDTA, 0.1 mM PMSF, and 0.01% of cold and freshly prepared NaN3, through a glass homogenizer and teflon stem. The homogenate was distributed in Eppendorf tubes and centrifuged at 20,000 g for 30 min at 4 °C to produce a synaptosome pellet (fraction P1) which is used for the binding assay. This fraction P1 was subsequently stored at −80 °C.
Binding assay of [^3H]-cytisine in α4β2 nAChR cells: the rat complete brain P1 fraction (occupying 2 mg of wet tissue for each assay) was incubated in 2500 μL of 20 mM HEPES buffer solution at pH 7.4 containing 118 mm NaCl, 4.8 mm KCl, 2.5 mm CaCl2, 200 mm Tris, 0.1 mm PMSF and 0.01% NaN3 with or without the different drugs under study at different concentrations, in the presence of 1 nM of [^3H]-cytisine (specific activity 35.8 Ci/mmol, Code NET1054025UC, Perkin-Elmer, Santiago, Chile) in a final volume of 250 μL. Non-specific binding was determined using 2.5 mM of cytisine. Incubation was performed for 30 min at room temperature and then for 60 min at 4 °C. Incubation was stopped by rapid filtration in Whatman GF/C filter preabsorbed in 0.5% polyethylenimine, which were washed with cold and fresh working buffer 7 times, then dried, and adding scintillation liquid, left for the whole night in Eppendorf tubes in order to measure later the radioactivity by liquid scintillation spectrometry (MicroBeta 2450 microplate counter, PerkinElmer, Santiago, Chile). The data were plotted by non-linear regression variable inhibitor-response dose (Prism 5.01, GraphPad, San Diego, CA, USA) to obtain the IC50 and Ki values of the tested compounds using the Cheng-Prusoff equation.

Molecules are shown by their SMILES. Counter-ions that a name gives are not always drawn.

Consider `CN1CCC[C@H]1COC(=O)Cc1ccc(Cl)cc1Cl` (as salt: hydrochloride), for which the melting point – broadly, the temperature, or range, at which the solid turns liquid – was in the range of 179.1 to 180.5 °C.

As for `CN1CCC[C@H]1COC(=O)Cc1ccc(Cl)c(Cl)c1` (as salt: hydrochloride), the melting point lay within 183.5 to 184.8 °C.

In turn, `CN1CCC[C@H]1COC(=O)c1cccc(Cl)c1` (as salt: hydrochloride) [Compound 3, (S)-(1-Methyl-2-pyrrolidinyl)methyl 3-chlorobenzoate] showed a melting point of 120.5 to 121.9 °C.

As for `CN1CCCC1CCOC(=O)c1ccccc1` (racemic) [Compound 7, (±)-2-(1-Methyl-2-pyrrolidinyl)ethyl benzoate], at h-SERT (values above 100 = increased radioligand binding), the % radioligand binding at 25 µM stood at 100 ± 0.5%. Further, the “affinity for h-SERT (displacement of [3H]-paroxetine from the central binding site)” value (shortened to “affinity for h-SERT”) at h-SERT is given as “no affinity”. Besides, the “Ki (µM) h-DAT” value on h-DAT is “no affinity and N.E”. Further, the Ki – broadly, a dissociation constant, usually derived from enzyme kinetics or from competition with a known ligand – at α4β2 nAChR stood at 1.79 ± 0.378 µM.

For `CN1CCCC1CCOC(=O)c1cccc(F)c1` (racemic) [Compound 8, (±)-2-(1-Methyl-2-pyrrolidinyl)ethyl 3-fluorobenzoate], at h-SERT ([…]), the “% of Binding [3H]-Paroxetine h-SERT” value is on record as “increase in the binding” and the % radioligand binding at 25 µM is 140 ± 2%. Besides, the “Ki (µM) h-DAT” value on h-DAT is listed as “N.E”. At α4β2 nAChR, the “Ki (µM) α4β2 nAChR” value was “N.E”.

Take `CN1CCCC1CCOC(=O)c1cccc(Cl)c1` (racemic) [Compound 9, (±)-2-(1-Methyl-2-pyrrolidinyl)ethyl 3-chlorobenzoate]: the % radioligand binding at 25 µM on h-SERT ([…]) was 108 ± 1.2%. Moreover, the “Ki (µM) h-DAT” value on h-DAT is recorded as “N.E”. The inhibition constant (Ki) on α4β2 nAChR was 3.46 ± 0.36 µM.

Take `Cc1ccccc1C(=O)OCCC1CCCN1C` (racemic) [Compound 11, (±)-2-(1-Methyl-2-pyrrolidinyl)ethyl 2-methylbenzoate]: the “affinity for h-SERT” value at h-SERT is reported as “did not display affinity”. Moreover, the “Ki (µM) h-DAT” value at h-DAT is reported as “did not display affinity”. Also, on α4β2 nAChR, the “Ki (µM) α4β2 nAChR” value was “did not display affinity”.

`Cc1ccc(C(=O)OCCC2CCCN2C)cc1` (racemic) [Compound 12, (±)-2-(1-Methyl-2-pyrrolidinyl)ethyl 4-methylbenzoate]: on h-SERT, the “affinity for h-SERT” value is “did not display affinity”. Further, on h-DAT, the “Ki (µM) h-DAT” value is on record as “did not display affinity”. Also, the “Ki (µM) α4β2 nAChR” value on α4β2 nAChR is listed as “did not display affinity”.

`CN1CCCC1CCOC(=O)Cc1ccccc1` (racemic) [Compound 16, (±)-2-(-1-Methyl-2-pyrrolidinyl)ethyl 2-phenylacetate] gave a % radioligand binding at 25 µM at h-SERT ([…]) of 92 ± 0.3%. The same compound showed a Ki at h-DAT of 22.7 ± 7.1 µM. Further, the “Ki (µM) α4β2 nAChR” value on α4β2 nAChR is recorded as “N.E”.

For `CN1CCCC1CCOC(=O)Cc1ccc(Cl)c(Cl)c1` (racemic) [Compound 17, (±)-2-(-1-Methyl-2-pyrrolidinyl)ethyl 2-(3,4-dichlorophenyl)acetate], the % radioligand binding at 25 µM on h-SERT ([…]) turned out to be 78 ± 0.6%. The compound further yielded a Ki at h-DAT of 3.32 ± 0.923 µM. For the same compound, on α4β2 nAChR, the “Ki (µM) α4β2 nAChR” value was “N.E”.

For the compound `CN1CCCC1CCOC(=O)c1ccc2ccccc2c1` (racemic) [Compound 19, (±)-2-(1-Methyl-2-pyrrolidinyl)ethyl 2-naphthoate], at h-SERT ([…]), the “% of Binding [3H]-Paroxetine h-SERT” value is recorded as “increase in the binding” and the % radioligand binding at 25 µM was determined as 126 ± 1.9%. For the same compound, the affinity on h-DAT corresponds to a Ki of 44.2 ± 8.12 µM. Also, the “Ki (µM) α4β2 nAChR” value at α4β2 nAChR is recorded as “N.E”.

Turning to `CN1CCCC1CCOC(=O)C(c1ccccc1)c1ccccc1` (racemic) [Compound 21, (±)-2-(-1-Methyl-2-pyrrolidinyl)ethyl 2,2-diphenylacetate], at h-SERT ([…]), the % radioligand binding at 25 µM was 86.5 ± 1.5%. For the same compound, the figures for the Ki on h-DAT and on α4β2 nAChR were 0.075 ± 0.009 µM and 0.113 ± 0.037 µM, respectively.

As for `CN1CCC[C@H]1COC(=O)c1ccccc1` [Compound 1, (S)-(1-Methyl-2-pyrrolidinyl)methyl Benzoate], the % radioligand binding at 25 µM at h-SERT ([…]) turned out to be 86 ± 0.6%. For the same compound, the “Ki (µM) h-DAT” value on h-DAT is on record as “N.E”. At α4β2 nAChR, the affinity corresponds to a Ki of 0.023 ± 0.006 µM.

Consider `CN1CCC[C@H]1COC(=O)c1cccc(F)c1` [Compound 2, (S)-(1-Methyl-2-pyrrolidinyl)methyl 3-fluorobenzoate], for which, at h-SERT ([…]), the “% of Binding [3H]-Paroxetine h-SERT” value is recorded as “increase in the binding” and the % radioligand binding at 25 µM was 123 ± 1.2%. Also, the “Ki (µM) h-DAT” value at h-DAT was “N.E”. Also, the Ki at α4β2 nAChR was found to be 0.094 ± 0.002 µM.

Regarding `CN1CCC[C@H]1COC(=O)c1cccc(Cl)c1` [Compound 3, (S)-(1-Methyl-2-pyrrolidinyl)methyl 3-chlorobenzoate], the % radioligand binding at 25 µM on h-SERT ([…]) worked out at 87.5 ± 1.5%. Besides, the “affinity for h-SERT” value at h-SERT is “lacks affinity”. Moreover, the “Ki (µM) h-DAT” value on h-DAT is “lacks affinity and N.E”. Moreover, the affinity on α4β2 nAChR, expressed as Ki, was 0.009 ± 0.001 µM.

As to `CN1CCC[C@H]1COC(=O)c1cccc(Br)c1` [Compound 4, (S)-(1-Methyl-2-pyrrolidinyl)methyl 3-bromobenzoate], on h-SERT ([…]), the “% of Binding [3H]-Paroxetine h-SERT” value is “increase in the binding” and the % radioligand binding at 25 µM was 137 ± 1.2%. In addition, the “Ki (µM) h-DAT” value at h-DAT is on record as “N.E”. Moreover, on α4β2 nAChR, affinity was put at a Ki of 0.132 ± 0.038 µM.

`Cc1ccccc1C(=O)OC[C@@H]1CCCN1C` [Compound 5, (S)-(1-Methyl-2-pyrrolidinyl)methyl 2-methylbenzoate]: the “affinity for h-SERT” value on h-SERT was “did not display affinity”. For the same compound, the “Ki (µM) h-DAT” value at h-DAT is recorded as “did not display affinity”. In addition, the “Ki (µM) α4β2 nAChR” value on α4β2 nAChR was “did not display affinity”.

In the case of `Cc1ccc(C(=O)OC[C@@H]2CCCN2C)cc1` [Compound 6, (S)-(1-Methyl-2-pyrrolidinyl)methyl 4-methylbenzoate], the “affinity for h-SERT” value at h-SERT is reported as “did not display affinity”. Further, the “Ki (µM) h-DAT” value at h-DAT is “did not display affinity”. The “Ki (µM) α4β2 nAChR” value on α4β2 nAChR is listed as “did not display affinity”.

In the case of `CN1CCC[C@H]1COC(=O)c1ccc2ccccc2c1` [Compound 18, (S)-(1-Methyl-2-pyrrolidinyl)methyl 2-naphthoate], on h-SERT ([…]), the “% of Binding [3H]-Paroxetine h-SERT” value is reported as “increase in the binding” and the % radioligand binding at 25 µM worked out at 117 ± 2.3%. The affinity at h-DAT corresponds to a Ki of 99.3 ± 1.41 µM. The compound further showed a Ki on α4β2 nAChR of 0.12 ± 0.037 µM.

The values above are taken from PMC6832503, “Synthesis of Novel Nicotinic Ligands with Multimodal Action: Targeting Acetylcholine α4β2, Dopamine and Serotonin Transporters” (Molecules, 2019).
